Laboratory results taken from patent US6113896A, “Pharmaceutical compositions containing ecotin and homologs thereof” (priority 1994, dated 2000).

Assays:
normal human plasma [1] = test: Activated partial thromboplastin time (APTT) clotting assay; assay type: biochemical; settings: ellagic acid
Experimental: For the activated partial thromboplastin time (APTT) assays, the activation time was set at 120 sec and acquisition time at 300 to 600 sec depending on the expected outcome of the assay. Citrated normal human plasma and inhibitor were incubated together. The sample (plasma and inhibitor) and activator (Instrumentation Laboratories Ellagic acid/Phospholipid mix Test Reagent) were automatically pipetted and incubated together for 2 min at 37° C., then CaCl2 was added and clotting time determined by means of optical assessment. The total incubation time of inhibitor with plasma was ca. 3 min before addition of activator, and 5 min before addition of CaCl2. Final concentrations were 0.57 nM to 5.7 μM ecotin, 15.3 ug protein/ml 293 cell membranes, 8.3 uM ellagic acid, 8.3 mM CaCl2, and 33.3% plasma in a total volume of 162 μl.

normal human plasma [2] = test: Prothrombin time (PT) clotting assay; assay type: biochemical; settings: initiation by TF
Experimental: Coagulation assays and Prolongation of Clotting Times Clotting times were performed using the ACL 300 Research Coagulation Analyzer. For the prothrombin time (PT) assays, the incubation time was set at 120 sec and acquisition time at 120 to 600 sec depending on the expected outcome of the assay. Membranes from 293 cells expressing TF (Paborsky, L. R. et al., Biochemistry 28:8072-8077 [1989]) were premixed with CaCl2. The sample (plasma and inhibitor) and reagent (CaCl2 /TF) were automatically mixed together after a 2 min incubation at 37° C. The clotting time was determined by optical assessment. The total incubation time of inhibitor with plasma before addition of CaCl2 /TF was ~5 min. Final concentrations were 78 nM to 7.8 μM ecotin, 3.7 nM TF (0.9 μg/ml by protein content), 22.5 mM CaCl2, and 50% plasma in a total volume of 160 μl.

FXa = FXa association rate constant; assay type: biochemical, human
Experimental: Determination of FXa association rate constants The association rate of ecotin with FXa was determined as follows. At reference time zero, ecotin (7 nM final concentration) was added to FXa (5 nM final concentration) and TNCT buffer in a total volume of 3.0 ml. Immediately thereafter, 150 μl aliquots were removed at intervals over a period of 10 min and added to microtiter wells containing 50 μl 5 mM Spectrozyme fXa. The absorbance of the wells was monitored at 405 nm. Initial rates were determined for each well using the initial linear portion of each data set. The concentration of free enzyme versus time was plotted and the curves fitted to equation 4; values for kon were determined by nonlinear regression analysis.
The rate of association of a reversible inhibitor with enzyme is given by equation 2: [formula] Since measurements were made during the initial phase of the reaction, where dissociation of the E·I complex is negligible, the second term of equation 2 can be ignored. Therefore the rate of association is given by equation 3: [formula] […] The association rate constant for ecotin with FXa was determined by measuring free enzyme as a function of time and fitting the data to equation (4) by nonlinear regression analysis. A value for kon =(1.35±0.08)×10^6 M^-1 s^-1 was calculated for ecotin with FXa (FIG. 4A); kon values for ecotin mutants are shown in Table I.

[3] = molecular target: HLE (human leukocyte elastase); test: Equilibrium inhibition constant with HLE; assay type: biochemical; settings: apparent value, 0.08 mM MeOSuc-Ala-Ala-Pro-Val-MCA
Experimental: Determination of Equilibrium Inhibition Constants Apparent Ki values (Ki *) for the inhibition of the enzymes tested by ecotin and mutants were measured as follows. All reactions were performed at 25° C. Stock solutions of trypsin were quantitated by active site burst titration with MUGB as previously described (Jameson, G. W. et al., Biochem. J. 131:107-117 [1973]) using a Fluoroskan II plate reader at excitation wavelength of 355 nm and emission wavelength of 460 nm. Data was collected on a Macintosh SE20 using either Delta Soft II Fl v3.31 software (BioMetallics). Active site titrated trypsin was then used to quantitate ecotin active sites using BAPA as the substrate; a stoichiometry of 1:1 was assumed (Chung, C. H. et al., supra). Factor Xa, Factor XIIa, plasma kallikrein, or HLE were then quantitated by active site titration using ecotin as a standard, again assuming 1:1 stoichiometry. In addition, the concentration of HLE was quantitated by methods previously described using a calibrated stock of α1 -proteinase inhibitor to titrate the HLE active sites (Beatty, K. et al., J. Biol. Chem. 255:3931-3934 [1980]); the same HLE active site concentration was determined using both ecotin and α1 -proteinase inhibitor. […]

Ecotin: E. coli periplasmic protein having the 142 amino acid residue sequence reported by McGrath et al.; recombinant, P1 Met84
concentration causing 10-fold prolongation of clotting time, APTT (normal human plasma [1]): ~0.3 μM
concentration causing 10-fold prolongation of clotting time, APTT (normal human plasma [1]; listed as Wild type ecotin): ~ 0.3 μM
concentration causing 10-fold prolongation of clotting time, PT (normal human plasma [2]): ~2 μM
concentration causing 10-fold prolongation of clotting time, PT (normal human plasma [2]; listed as Wild type ecotin): ~ 2 μM
time for complete inhibition of FXa (FXa; ca. 500 nM ecotin, maximum FXa concentration in blood ca. 200 nM): approximately 7.4 sec
association rate constant (kon) with FXa (FXa; full power of ten printed): 1.35e+06 M⁻¹ s⁻¹
Ki [3]: 0.05 nM
